The text below walks through data of patent publication US9128088B2 (priority 2008, dated 2015).

Common to all, as to experiment: microbe, parasite or virus in culture
The test system of one assay is M. smegmatis mc^2155. The format is cell-based, Mycobacterium smegmatis. The note with it: Mycolicibacterium smegmatis.
Another assay concerns M. tuberculosis H37Rv. The format is cell-based. The note with it: Mycobacterium tuberculosis.
The test system of the next assay is M. bovis BCG. It is filed as cell-based. The settings on record: Mycobacterium tuberculosis variant bovis BCG.

The structures appear in SMILES notation. Converted amounts (≈) assume the structure as drawn.

Take `NNC(=O)c1ccncc1` [Isoniazid, isoniazid]: the MIC against M. smegmatis mc^2155 came out at 16 µg/mL (≈ 117 µM); in the assay on M. tuberculosis H37Rv, 0.05 µg/mL (≈ 0.365 µM); against M. bovis BCG, 0.05 µg/mL (≈ 0.365 µM).
